Results as given in ChEMBL document CHEMBL4813995, “Synthesis and anti-trypanosomal activity of 3'-fluororibonucleosides derived from 7-deazapurine nucleosides” (Bioorg Med Chem Lett, 2021).

Key:
[1] = Selective index, ratio of IC50 for human NHDF cells to EC50 for Trypanosoma brucei gambiense; type: toxicity; conditions: read-out: Ratio IC50/EC50
[2] = test system: HeLa S3; experiment: Cytotoxicity against human HeLa S3 cells assessed as reduction in cell viability by XTT assay; type: functional, cell-based
[3] = Selective index, ratio of IC50 for human NHDF cells to EC50 for Trypanosoma brucei brucei; type: toxicity; conditions: read-out: Ratio IC50/EC50
[4] = test system: Trypanosoma brucei gambiense; experiment: Antitrypanosomal activity against Trypanosoma brucei gambiense by drug sensitivity assay; type: functional, organism-based
[5] = test system: HepG2; experiment: Cytotoxicity against human HepG2 cells assessed as reduction in cell viability by XTT assay; type: functional, cell-based
[6] = test system: HL-60; experiment: Cytotoxicity against human HL-60 cells assessed as reduction in cell viability by XTT assay; type: functional, cell-based
[7] = test system: NHDF; experiment: Cytotoxicity against human NHDF cells assessed as reduction in cell viability by XTT assay; type: cell-based
[8] = test system: Trypanosoma brucei brucei; experiment: Antitrypanosomal activity against Trypanosoma brucei brucei by drug sensitivity assay; type: functional, organism-based
[9] = test system: CCRF-CEM; experiment: Cytotoxicity against human CCRF-CEM cells assessed as reduction in cell viability by XTT assay; type: functional, cell-based

SMILES | selectivity ratio [1] | IC50 [2] | selectivity ratio [3] | EC50 [4] | IC50 [5] | IC50 [6] | IC50 [7] | EC50 [8] | IC50 [9]
Nc1ncnc2c1c(-c1ccc(Cl)cc1)cn2[C@@H]1O[C@H](CO)[C@@H](F)[C@H]1O | > 10 | > 10 µM | > 20 | 0.99 µM | > 10 µM | > 10 µM | > 10 µM | 0.49 µM | > 10 µM
Nc1ncnc2c1c(Br)cn2[C@@H]1O[C@H](CO)[C@@H](F)[C@H]1O | > 270 | > 10 µM | > 208 | 0.037 µM | > 10 µM | > 10 µM | > 10 µM | 0.048 µM | > 10 µM
Nc1ncnc2c1ccn2[C@@H]1O[C@H](CO)[C@@H](F)[C@H]1O | – | > 10 µM | > 1.7 | – | > 10 µM | > 10 µM | > 10 µM | 6 µM | > 10 µM
Nc1ncnc2c1c(-c1ccco1)cn2[C@@H]1O[C@H](CO)[C@@H](F)[C@H]1O | – | > 10 µM | > 6 | – | > 10 µM | > 10 µM | > 10 µM | 1.59 µM | > 10 µM
Nc1ncnc2c1c(-c1cccs1)cn2[C@@H]1O[C@H](CO)[C@@H](F)[C@H]1O | – | > 10 µM | > 2 | – | > 10 µM | > 10 µM | > 10 µM | 4.92 µM | > 10 µM
Nc1ncnc2c1c(I)cn2[C@@H]1O[C@H](CO)[C@@H](F)[C@H]1O | > 455 | 6.3 µM | > 666 | 0.022 µM | 1.1 µM | 1.13 µM | > 10 µM | 0.015 µM | 4.5 µM
Nc1ncnc2c1c(-c1cccc3c1oc1ccccc13)cn2[C@@H]1O[C@H](CO)[C@@H](F)[C@H]1O | – | > 10 µM | – | – | > 10 µM | > 10 µM | > 10 µM | 15.4 µM | > 10 µM
Nc1ncnc2c1c(-c1ccc3ccccc3c1)cn2[C@@H]1O[C@H](CO)[C@@H](F)[C@H]1O | – | > 10 µM | – | – | > 10 µM | > 10 µM | > 10 µM | 16.2 µM | > 10 µM
